Reference: US20230348426A1, “OXOPYRROLIDINE FPR2 AGONISTS” (Bristol-Myers Squibb Company, priority 2020, published 2023)

Tests used:
[1] = biological target: human FPR2 (Homo sapiens (Human), UniProt P25090); assay: FPR2 cyclic adenosine monophosphate (cAMP) assay; type: cell-based; conditions: CHO cells overexpressing human FPR2; forskolin 5 µM; inhibition of cAMP production; read-out: hFPR2 cAMP2 EC50
Summary of the method: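 Inhibition of forskolin-driven (5 µM) cAMP, with 200 µM IBMX, measured in human FPR2-expressing CHO cells, 2,000 per well, 30 min at room temperature; compounds tested 0.020 nM to 100 µM in 1% DMSO. HTRF 665/590 ratio converted to cAMP via calibration curve, then 4-parameter fit.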

[2] = biological target: human FPR1 (Homo sapiens (Human), UniProt P21462); assay: FPR1 cyclic adenosine monophosphate (cAMP) assay; type: cell-based; conditions: CHO cells overexpressing human FPR1; forskolin 10 µM; inhibition of cAMP production; read-out: hFPR1 cAMP EC50
human FPR1, sequence (P21462 whole entry): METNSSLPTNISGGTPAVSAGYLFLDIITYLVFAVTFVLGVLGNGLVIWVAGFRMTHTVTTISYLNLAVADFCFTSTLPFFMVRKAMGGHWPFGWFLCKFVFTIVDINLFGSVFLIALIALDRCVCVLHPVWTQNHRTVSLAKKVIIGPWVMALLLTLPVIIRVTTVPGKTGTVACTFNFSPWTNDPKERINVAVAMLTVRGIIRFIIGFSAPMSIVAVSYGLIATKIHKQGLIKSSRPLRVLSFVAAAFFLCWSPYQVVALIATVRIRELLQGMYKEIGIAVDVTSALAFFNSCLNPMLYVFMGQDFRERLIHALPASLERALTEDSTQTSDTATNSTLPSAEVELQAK
Summary of the method: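 Human FPR1-expressing CHO cells were used at 4,000 per well, with compound at 0.020 nM–100 µM in 1% DMSO. Potency came from a 4-parameter logistic fit.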

human FPR2, sequence (P25090 whole entry): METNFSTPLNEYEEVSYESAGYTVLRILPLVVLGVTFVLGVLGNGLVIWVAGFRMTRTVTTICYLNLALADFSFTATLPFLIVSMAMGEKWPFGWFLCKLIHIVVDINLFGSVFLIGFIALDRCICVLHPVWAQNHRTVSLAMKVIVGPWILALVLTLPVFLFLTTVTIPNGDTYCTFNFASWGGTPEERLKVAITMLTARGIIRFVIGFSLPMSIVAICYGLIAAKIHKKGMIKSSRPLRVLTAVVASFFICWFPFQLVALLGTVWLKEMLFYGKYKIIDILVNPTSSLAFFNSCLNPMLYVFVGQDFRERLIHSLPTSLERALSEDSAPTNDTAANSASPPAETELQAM

Row | SMILES | EC50 [1] [nM] | EC50 [2] [nM]
1 | COCC(C(=O)N(C)C)n1cccc(N2C[C@@H](c3c(F)cc(OC)cc3F)[C@H](NC(=O)c3ccc(OC(F)F)cc3)C2=O)c1=O (stereo partly shown) [Example 172] | 4.5 | 39
2 | COc1cc(F)c([C@@H]2CN(c3cccn(CC(C)O)c3=O)C(=O)[C@H]2NC(=O)c2ccc(OC(F)(F)F)cc2)c(F)c1 (stereo partly shown) [Example 173] | 4.5 | 12
3 | COc1cc(F)c([C@@H]2CN(c3cccn(CCO)c3=O)C(=O)[C@H]2NC(=O)c2ccc(OC(F)(F)F)cc2)c(F)c1 [Example 174] | 4.5 | 67
4 | COc1cc(F)c([C@@H]2CN(c3c(C)ccn(CC(C)O)c3=O)C(=O)[C@H]2NC(=O)c2ccc(OC(F)F)cc2)c(F)c1 (stereo partly shown) [Example 176] | 4.6 | 6.5
5 | COCCn1ccc(C)c(N2C[C@@H](c3ccc(OC)cc3)[C@H](NC(=O)c3ccc(OC(F)(F)F)cc3)C2=O)c1=O [Example 178] | 4.7 | 0.1
6 | COc1cc(F)c([C@@H]2CN(c3cccn(CC(C)(CO)CO)c3=O)C(=O)[C@H]2NC(=O)c2ccc(OC(F)F)cc2)c(F)c1 [Example 179] | 4.7 | 92
7 | COc1cc(N2C[C@@H](C)N(C)[C@@H](C)C2)nc(N2C[C@@H](c3c(F)cc(OC)cc3F)[C@H](NC(=O)c3ccc(Cl)cc3)C2=O)c1 [Example 180] | 4.7 | > 10000
8 | COc1cc(F)c([C@@H]2CN(c3nccc(N4C[C@@H](C)N(C)[C@@H](C)C4)c3C(F)(F)F)C(=O)[C@H]2NC(=O)c2ccc(Cl)cc2)c(F)c1 [Example 181] | 4.8 | 990
9 | COc1ccc([C@@H]2CN(c3c(C)ccn(CC(F)F)c3=O)C(=O)[C@H]2NC(=O)c2ccc(OC(F)(F)F)cc2)c(F)c1 [Example 182] | 4.8 | 1.8
10 | COCCn1ccc(C)c(N2C[C@@H](c3c(F)cc(OC)cc3F)[C@H](NC(=O)c3ccc(OC(F)(F)F)cc3)C2=O)c1=O [Example 185] | 4.8 | 0.7
11 | COc1cc(F)c([C@@H]2CN(c3cccn(CC(C)(CO)CO)c3=O)C(=O)[C@H]2NC(=O)c2ccc(OC(F)(F)F)cc2)c(F)c1 [Example 187] | 4.9 | 38
12 | COc1cc(F)c([C@@H]2CN(c3cc(Cl)cn(C)c3=O)C(=O)[C@H]2NC(=O)c2ccc(Cl)cc2)c(F)c1 [Example 189] | 5 | 3400
13 | COc1cc(F)c([C@@H]2CN(c3cccn(CC(F)(F)F)c3=O)C(=O)[C@H]2NC(=O)c2ccc(OC(F)F)cc2)c(F)c1 [Example 190] | 5 | 130

The remaining lines, values ahead:

Row | EC50 [1] [nM] | EC50 [2] [nM] | SMILES
14 | 4.6 | 9.3 | COCC(CO)n1cccc(N2C(=O)[C@@H](NC(=O)c3ccc(OC(F)(F)F)cc3)[C@H](c3c(F)cc(OC)cc3F)[C@@H]2C)c1=O (stereo partly shown) [Example 175]
15 | 4.6 | 15 | COc1cc(F)c([C@@H]2CN(c3nc(N(C)C(C)=O)ccc3F)C(=O)[C@H]2NC(=O)c2ccc(OC(F)F)cc2)c(F)c1 [Example 177]
16 | 4.8 | 0.6 | CCn1ccc(C)c(N2C[C@@H](c3ccc(OC)cc3F)[C@H](NC(=O)c3ccc(OC(F)(F)F)cc3)C2=O)c1=O [Example 183]
17 | 4.8 | 9.8 | COc1cc(F)c([C@@H]2CN(c3cccc(OC(F)F)c3)C(=O)[C@H]2NC(=O)c2ccc(OC(F)(F)F)cc2)c(F)c1 [Example 184]
18 | 4.9 | 3 | COc1cc(F)c([C@@H]2CN(c3cccn(CC(OC)C(F)(F)F)c3=O)C(=O)[C@H]2NC(=O)c2ccc(OC(F)F)cc2)c(F)c1 (stereo partly shown) [Example 186]
19 | 4.9 | 38 | COc1cc(F)c([C@@H]2CN(c3cccn(C(F)F)c3=O)C(=O)[C@H]2NC(=O)c2ccc(OC(F)(F)F)cc2)c(F)c1 [Example 188]
20 | 5 | 90 | COc1cc(F)c([C@@H]2CN(c3cccn(CC(F)(F)F)c3=O)C(=O)[C@H]2NC(=O)c2ccc(OC(F)(F)F)cc2)c(F)c1 [Example 191]
